Experimental data from patent US5418162A, “Serotonin transporter CDNA” (Duke University, priority 1992, dated 1995).
pKi: −log10 of the molar value.

What was measured:
NCCc1c[nH]c2ccc(O)cc12 = assay: cells, lysate or membranes; settings: other: increasing concentrations of unlabeled 5HT, Eadie-Hofstee transformation, transfected HeLa cells; pH 7.4; 37.0 °C
[1] = target: human 5HT transporter (hSERT) (Homo sapiens, UniProt P31645); assay: [3H]5HT transport assay in HeLa cells transfected with hSERT cDNA
Chain of human 5HT transporter (hSERT) (P31645 whole entry): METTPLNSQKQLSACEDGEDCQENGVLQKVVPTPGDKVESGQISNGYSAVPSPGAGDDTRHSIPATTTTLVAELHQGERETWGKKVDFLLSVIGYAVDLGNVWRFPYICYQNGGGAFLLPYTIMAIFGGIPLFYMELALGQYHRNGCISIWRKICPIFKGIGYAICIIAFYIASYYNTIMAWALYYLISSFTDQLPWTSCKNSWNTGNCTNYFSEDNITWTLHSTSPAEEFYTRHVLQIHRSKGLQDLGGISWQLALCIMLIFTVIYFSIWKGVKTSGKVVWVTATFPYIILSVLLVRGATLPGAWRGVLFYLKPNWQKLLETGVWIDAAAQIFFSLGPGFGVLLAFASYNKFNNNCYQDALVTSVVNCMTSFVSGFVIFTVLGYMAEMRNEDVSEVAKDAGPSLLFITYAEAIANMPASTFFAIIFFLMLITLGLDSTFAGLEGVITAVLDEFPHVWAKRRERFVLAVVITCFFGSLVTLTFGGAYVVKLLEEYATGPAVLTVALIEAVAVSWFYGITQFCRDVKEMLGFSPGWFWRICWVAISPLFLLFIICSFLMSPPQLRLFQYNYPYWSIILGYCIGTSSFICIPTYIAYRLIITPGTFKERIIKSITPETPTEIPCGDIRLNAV

[2] = target: rat 5HT transporter (rSERT) (Rattus norvegicus, UniProt P31652); assay: [3H]5HT transport assay in HeLa cells transfected with BS4E-10 cDNA (rSERT); assay type: cell-based
Chain of rat 5HT transporter (rSERT) (P31652 whole entry): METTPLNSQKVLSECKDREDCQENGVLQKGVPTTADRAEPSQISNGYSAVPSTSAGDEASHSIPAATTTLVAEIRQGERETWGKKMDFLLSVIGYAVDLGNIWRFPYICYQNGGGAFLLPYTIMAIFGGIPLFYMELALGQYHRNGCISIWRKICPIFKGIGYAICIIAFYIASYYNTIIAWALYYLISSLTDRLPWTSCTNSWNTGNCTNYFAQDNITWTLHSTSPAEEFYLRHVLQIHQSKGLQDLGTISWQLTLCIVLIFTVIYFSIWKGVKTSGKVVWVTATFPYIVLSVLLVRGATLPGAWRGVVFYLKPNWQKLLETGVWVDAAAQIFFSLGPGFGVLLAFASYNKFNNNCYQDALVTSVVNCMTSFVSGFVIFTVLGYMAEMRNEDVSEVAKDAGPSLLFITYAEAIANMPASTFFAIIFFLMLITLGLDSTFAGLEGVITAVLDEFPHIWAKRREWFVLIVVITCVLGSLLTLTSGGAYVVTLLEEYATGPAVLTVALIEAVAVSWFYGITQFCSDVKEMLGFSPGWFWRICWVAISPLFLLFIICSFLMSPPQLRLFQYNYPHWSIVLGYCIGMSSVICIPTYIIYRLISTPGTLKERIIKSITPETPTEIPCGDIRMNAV

Compound | inhibition of 5HT uptake (in words) [1] | pKi [2] | other results
human 5HT transporter (hSERT) (Homo sapiens) | – | – | Km (NCCc1c[nH]c2ccc(O)cc12): 0.463 µM
CC(N)Cc1ccccc1 (stereo not drawn) [amphetamine] | block 5HT transport at low micromolar concentrations | – | –
COC(=O)[C@H]1[C@@H](OC(=O)c2ccccc2)C[C@@H]2CC[C@H]1N2C [cocaine] | block 5HT transport at low micromolar concentrations | – | potency for 5HT transport inhibition compared with inhibition of the cloned NA carrier ([2]; rSERT in transfected cells vs cloned NA transporter): predictably lower potency; antagonism of 5HT transport (in words) ([2]; transfected HeLa cells): blocked 5HT transport
NCCc1c[nH]c2ccc(O)cc12 [5HT, 5-hydroxytryptamine] | – | – | Vmax of 5HT transport ([2]; increasing concentrations of unlabeled 5HT, transfected HeLa cells): 6.7×10^-18 mol/cell/min; Km ([2]; read-out: Km of 5HT transport, increasing concentrations of unlabeled 5HT, transfected HeLa cells): 1.5 µM
NCCc1c[nH]cn1 [histamine] | – | < 5.00 | –
COC(=O)[C@H]1[C@@H](c2ccc(I)cc2)C[C@@H]2CC[C@H]1N2C.O=C(O)C(O)C(O)C(=O)O [RTI-55, 3β-[4-iodophenyl]tropan-2β-carboxylic acid methyl ester tartrate] | increased potency over cocaine | – | –
OC1(c2ccc(Cl)cc2)c2ccccc2C2=NCCN21 (stereo not drawn) [mazindol] | – | 5.00 | –
NC[C@H](O)c1ccc(O)c(O)c1 [noradrenaline] | – | < 5.00 | –
NCCc1ccc(O)c(O)c1 [Dopamine, dopamine] | – | < 5.00 | –
